# Tests used:
# LoVo-Dox = assay: SRB colorimetric cell growth inhibition assay, LoVo-Dox (MDR); type: cell-based; conditions: LOVO-DOX
# Outline: (§1)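 Human tumour cells were exposed continuously to the test sample, and growth and viability were quantified by sulforhodamine B staining. Means ± SD came from triplicate wells, and GI, TGI (cytostatic) and LC (cell killing) parameters were derived.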
# LoVo = assay: SRB colorimetric cell growth inhibition assay, LoVo; type: cell-based; conditions: LOVO
# Outline: as §1
# SK-BR-3 = assay: SRB colorimetric cell growth inhibition assay, SK-BR-3; type: cell-based; conditions: SK-BR-3
# Outline: as §1
# SK-MEL-28 = assay: SRB colorimetric cell growth inhibition assay, SK-MEL-28; type: cell-based; conditions: MEL-28
# Outline: as §1
# SKOV-3 = assay: SRB colorimetric cell growth inhibition assay, SKOV-3; type: cell-based; conditions: SKOV-3
# Outline: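 SRB colorimetric readout of cell growth/viability in 96-well format. Means ± SD from triplicate wells; GI (growth inhibition), TGI (total growth inhibition, cytostatic) and LC (cell killing, cytotoxic) parameters derived.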
# PANC-1 = assay: SRB colorimetric cell growth inhibition assay, PANC-1; type: cell-based; conditions: PANC-1
# Outline: as §1
# DU-145 = assay: SRB colorimetric cell growth inhibition assay, DU-145; type: cell-based; conditions: DU-145
# Outline: as §1
# A-549 = assay: SRB colorimetric cell growth inhibition assay, A-549; type: cell-based; conditions: A-549
# Outline: as §1
# IGROV = assay: SRB colorimetric cell growth inhibition assay, IGROV; type: cell-based; conditions: IGROV
# Outline: as §1
# LNCaP = assay: SRB colorimetric cell growth inhibition assay, LNCaP; type: cell-based; conditions: LN-caP
# Outline: as §1
# IGROV-ET = assay: SRB colorimetric cell growth inhibition assay, IGROV-ET (ET-743 resistant); type: cell-based; conditions: IGROV-ET
# Outline: as §1
# HT-29 = assay: SRB colorimetric cell growth inhibition assay, HT-29; type: cell-based; conditions: HT-29
# Outline: as §1
# H-MEC-1 = assay: SRB colorimetric cell growth inhibition assay, H-MEC-1; type: cell-based; conditions: H-MEC-1
# Description: Inhibition of Cell Growth by Colorimetric Assay.
# A colorimetric type of assay, using sulforhodamine B (SRB) reaction has been adapted for a quantitative measurement of cell growth and viability (following the technique described by P. A. Skehan, et al., J. Natl. Cancer Inst. 1990, 82, 1107-1112).
# This form of assay employs 96 well cell culture microplates of 9 mm diameter (T. Mosmann et al., J. of Immunological Methods 1983, 65, 55-63; G. T. Faircloth et al., J. of Tissue and Culture Methods 1988, 11, 201-205).
# Most of the cell lines are obtained from American Type Culture Collection (ATCC) derived from different human cancer types.
# The values for mean +/− SD of data from triplicate wells are calculated. Some parameters for cellular responses can be calculated: GI=growth inhibition, TGI=total growth inhibition (cytostatic effect) and LC=cell killing (cytotoxic effect).
# K-562 = assay: SRB colorimetric cell growth inhibition assay, K-562; type: cell-based; conditions: K-562
# Outline: as §1
# human topoisomerase I = target: T1, human topoisomerase I (Homo sapiens, UniProt P11387); assay: Topoisomerase I DNA relaxation assay (supercoiled plasmid DNA); type: biochemical; conditions: supercoiled plasmid DNA, each compound tested at 1 μM, agarose gel with ethidium bromide
# T1 sequence (P11387 1-765): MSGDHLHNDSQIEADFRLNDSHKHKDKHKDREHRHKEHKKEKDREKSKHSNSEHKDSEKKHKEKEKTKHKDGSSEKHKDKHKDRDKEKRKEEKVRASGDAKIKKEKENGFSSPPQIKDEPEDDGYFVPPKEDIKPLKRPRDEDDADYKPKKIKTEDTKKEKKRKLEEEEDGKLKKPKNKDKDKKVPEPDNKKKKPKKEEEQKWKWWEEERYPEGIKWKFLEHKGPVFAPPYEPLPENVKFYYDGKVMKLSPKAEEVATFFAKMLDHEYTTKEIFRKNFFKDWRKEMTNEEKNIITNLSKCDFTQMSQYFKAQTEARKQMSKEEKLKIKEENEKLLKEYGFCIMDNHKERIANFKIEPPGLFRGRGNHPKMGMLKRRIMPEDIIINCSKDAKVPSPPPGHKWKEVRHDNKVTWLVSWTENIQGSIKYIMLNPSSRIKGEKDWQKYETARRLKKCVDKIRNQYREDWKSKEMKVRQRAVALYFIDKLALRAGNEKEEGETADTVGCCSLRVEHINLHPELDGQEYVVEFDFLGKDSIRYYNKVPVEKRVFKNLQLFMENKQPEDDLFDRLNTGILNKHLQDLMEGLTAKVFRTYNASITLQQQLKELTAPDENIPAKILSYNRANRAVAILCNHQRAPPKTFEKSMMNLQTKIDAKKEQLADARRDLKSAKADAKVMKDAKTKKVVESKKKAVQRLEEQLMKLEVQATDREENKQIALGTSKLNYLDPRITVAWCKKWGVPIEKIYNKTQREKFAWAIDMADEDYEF
# Experimental: Two assays, based on DNA relaxation and DNA cleavage (Bailly, C. DNA relaxation and cleavage assays to study topoisomerase I inhibitors. Methods Enzymol. 2001, 340, 610-623) were used evaluate the effects of the lamellarin analogs on the catalytic activity of human topoisomerase I.
# In the first assay, a supercoiled plasmid DNA was relaxed with topoisomerase I in the absence or presence of the test compounds, each tested at 1 μM. DNA relaxation products were then resolved by gel electrophoresis on agarose gels containing ethidium bromide to stain the DNA.
# [1] = total growth inhibition (cytostatic effect)
# [2] = TGI=total growth inhibition (cytostatic effect)
smiles,measurement,setting,value
COc1cc(-c2c3n(c4c(=O)oc5cc(OC(C)=O)c(OC)cc5c24)CCc2cc(OC)c(OC(C)=O)cc2-3)ccc1OC(C)=O [Compound 94],GI50,"LoVo-Dox; GI=growth inhibition, read-out: GI50 LOVO-DOX",2.84 µM
same,CC50,"LoVo-Dox; cell killing (cytotoxic effect), read-out: LC50 LOVO-DOX",15.9 µM
same,TGI LOVO-DOX,LoVo-Dox; [1],8.25E−06 Molar
same,GI50,"LoVo; GI=growth inhibition, read-out: GI50 LOVO",5.7 µM
same,CC50,"LoVo; cell killing (cytotoxic effect), read-out: LC50 LOVO",15.9 µM
same,TGI LOVO,LoVo; [1],1.59E−05 Molar
same,GI50,"SK-BR-3; GI=growth inhibition, read-out: GI50 SK-BR-3",3.35 µM
same,CC50,"SK-BR-3; LC=cell killing (cytotoxic effect), read-out: LC50 SK-BR-3",15.9 µM
same,TGI SK-BR-3,SK-BR-3; [2],1.24E−05 Molar
same,GI50,"SK-MEL-28; GI=growth inhibition, read-out: GI50 MEL-28",2.45 µM
same,CC50,"SK-MEL-28; LC=cell killing (cytotoxic effect), read-out: LC50 MEL-28",15.9 µM
same,TGI MEL-28,SK-MEL-28; [2],7.31E−06 Molar
same,GI50,"SKOV-3; GI=growth inhibition, read-out: GI50 SKOV-3",8.48 µM
same,CC50,"SKOV-3; LC=cell killing (cytotoxic effect), read-out: LC50 SKOV-3",15.9 µM
same,TGI SKOV-3,SKOV-3; [2],1.59E−05 Molar
same,GI50,"PANC-1; GI=growth inhibition, read-out: GI50 PANC-1",2.12 µM
same,CC50,"PANC-1; cell killing (cytotoxic effect), read-out: LC50 PANC-1",15.9 µM
same,TGI PANC-1,PANC-1; [1],1.59E−05 Molar
same,GI50,"DU-145; GI=growth inhibition, read-out: GI50 DU-145",13.1 µM
same,CC50,"DU-145; LC=cell killing (cytotoxic effect), read-out: LC50 DU-145",15.9 µM
same,TGI DU-145,DU-145; [2],1.59E−05 Molar
same,GI50,"A-549; GI=growth inhibition, read-out: GI50 A-549",7.19 µM
same,CC50,"A-549; cell killing (cytotoxic effect), read-out: LC50 A-549",15.9 µM
same,TGI A-549,A-549; [1],1.59E−05 Molar
same,GI50,"IGROV; GI=growth inhibition, read-out: GI50 IGROV",1.83 µM
same,CC50,"IGROV; LC=cell killing (cytotoxic effect), read-out: LC50 IGROV",15.9 µM
same,TGI IGROV,IGROV; [2],5.90E−06 Molar
same,GI50,"LNCaP; GI=growth inhibition, read-out: GI50 LN-caP",0.673 µM
same,CC50,"LNCaP; LC=cell killing (cytotoxic effect), read-out: LC50 LN-caP",12.5 µM
same,TGI LN-caP,LNCaP; [2],2.87E−06 Molar
same,GI50,"IGROV-ET; GI=growth inhibition, read-out: GI50 IGROV-ET",1.59 µM
same,CC50,"IGROV-ET; LC=cell killing (cytotoxic effect), read-out: LC50 IGROV-ET",15.9 µM
same,TGI IGROV-ET,IGROV-ET; [2],1.59E−05 Molar
same,GI50,"HT-29; GI=growth inhibition, read-out: GI50 HT-29",15.5 µM
same,CC50,"HT-29; cell killing (cytotoxic effect), read-out: LC50 HT-29",15.9 µM
same,TGI HT-29,HT-29; [1],1.59E−05 Molar
same,GI50,H-MEC-1; GI=growth inhibition,15.9 µM
same,CC50,"H-MEC-1; LC=cell killing (cytotoxic effect), read-out: LC50 H-MEC-1",15.9 µM
same,TGI H-MEC-1,H-MEC-1; [2],1.59E−05 Molar
same,GI50,"K-562; GI=growth inhibition, read-out: GI50 K-562",0.526 µM
same,CC50,"K-562; cell killing (cytotoxic effect), read-out: LC50 K-562",4.32 µM
same,TGI K-562,K-562; [1],1.82E−06 Molar
COc1cc(-c2c3n(c4c(=O)oc5cc(OC(C)=O)c(OC)cc5c24)CCc2cc(OC(C)=O)c(OC)cc2-3)ccc1OC(C)=O [Compound 108],stimulation of DNA cleavage by topoisomerase I / inhibition of topoisomerase I (nicked DNA band) in DNA relaxation assay,human topoisomerase I,inactive
COc1cc(-c2c3c4cc(OC)c(OC(=O)[C@H](NC(=O)OC(C)(C)C)C(C)C)cc4oc(=O)c3n3ccc4cc(OC(=O)[C@H](NC(=O)OC(C)(C)C)C(C)C)c(OC)cc4c23)ccc1OC(=O)[C@H](NC(=O)OC(C)(C)C)C(C)C [Compound 122],stimulation of DNA cleavage by topoisomerase I / inhibition of topoisomerase I (nicked DNA band) in DNA relaxation assay,human topoisomerase I,No effect
